{"source": "patent US5489524A", "about": "“Chimeric protein that has a human Rho motif and deoxyribonuclease activity” (The United States of America as represented by the …, priority 1992, dated 1996)", "system": "Mammalian Endo-Exonuclease", "assay": "ss- and ds-DNase activities of the purified endo-exonuclease with divalent metal ions, NaCl, ATP or GTP (release of acid-soluble radioactivity from 32P-labeled pBR322 DNA)", "assay_type": "biochemical, Monkey", "details": "for Activity % ds-DNase / Activity % ss-DNase: 37° C.", "protocol": "The assay mixture contained 100 mM Tris-HCl pH 8.0, 10 mM MgCl2, and 17 μg of ^32 P-labelled linearized plasmid DNA. One unit of activity is defined as the amount of deoxyribonuclease which renders 1 μg of DNA acid-soluble in 30 min at 37° C. The plasmid was labeled using a random oligo-priming kit (Pharmacia Fine Chemical).\nThe ratios are calculated with respect to the activity of 10 mM Mg^2+ (100%).\nThe nuclease activities of putative recombination nucleases of E. coli are known to be affected by ATP. Moreover S. cerevisiae endo-exonuclease is believed to contain a region homologous to GTP-binding sites. The effects of ATP and GTP on the purified mammalian endo-exonuclease were therefore chosen to study.", "key": {"[1]": {"details": "metal ion 0.5 mM, activity with 10 mM Mg^2+ = 100%"}, "[2]": {"details": "metal ion 5.0 mM, activity with 10 mM Mg^2+ = 100%"}, "[3]": {"details": "metal ion 10.0 mM, reference = 100%"}, "[4]": {"details": "metal ion […], activity with 10 mM Mg^2+ = 100%"}, "[5]": {"details": "0.1 mM nucleotide added, 10 mM Mg^2+"}, "[6]": {"details": "1.0 mM nucleotide added, 10 mM Mg^2+"}, "[7]": {"details": "metal ion 0.1 mM, activity with 10 mM Mg^2+ = 100%"}, "[8]": {"details": "metal ion 1.0 mM, activity with 10 mM Mg^2+ = 100%"}}, "data": [{"smiles": "[Mg+2]", "note": "[Mg^2+]", "values": [{"measurement": "optimal concentration for ds-DNase", "value": 2.5, "unit": "mM"}, {"measurement": "optimal concentration for ss-DNase", "value": 0.5, "unit": "mM"}, {"measurement": "Ratio of Activities for ss/ds-DNase", "setting": "metal ion 0.5 mM", "value": 2.2}, {"measurement": "Activity % ds-DNase", "setting": "[1]", "value": 128, "unit": "%"}, {"measurement": "Activity % ss-DNase", "setting": "[1]", "value": 217, "unit": "%"}, {"measurement": "Activity % ds-DNase", "setting": "[2]", "value": 120, "unit": "%"}, {"measurement": "Activity % ss-DNase", "setting": "[2]", "value": 173, "unit": "%"}, {"measurement": "Ratio of Activities for ss/ds-DNase", "setting": "metal ion 10.0 mM", "value": 1.3}, {"measurement": "Activity % ds-DNase", "setting": "[3]", "value": 100, "unit": "%"}, {"measurement": "Activity % ss-DNase", "setting": "[3]", "value": 100, "unit": "%"}, {"measurement": "Activity % ds-DNase", "setting": "[4]", "value": 168, "unit": "%"}, {"measurement": "Activity % ss-DNase", "setting": "[4]", "value": 203, "unit": "%"}]}, {"smiles": "Nc1nc2c(ncn2[C@@H]2O[C@H](COP(=O)(O)OP(=O)(O)OP(=O)(O)O)[C@@H](O)[C@H]2O)c(=O)[nH]1", "note": "[GTP]", "values": [{"measurement": "effect on ds-DNase activity", "setting": "0.1 mM", "value": "slight enhancement of ds-DNase activity"}, {"measurement": "Activity % ds-DNase", "setting": "[5]", "value": 112, "unit": "%"}, {"measurement": "Activity % ss-DNase", "setting": "[5]", "value": 85, "unit": "%"}, {"measurement": "Activity % ds-DNase", "setting": "[6]", "value": 73, "unit": "%"}, {"measurement": "Activity % ss-DNase", "setting": "[6]", "value": 68, "unit": "%"}, {"measurement": "effect on ss-DNase and ds-DNase activities", "setting": "0.1-1.0 mM", "value": "slightly inhibited"}]}, {"smiles": "[Zn+2]", "note": "[Zn^2+]", "values": [{"measurement": "ability to replace Mg^2+ as cofactor", "value": "partially substitute for Mg^2+"}, {"measurement": "concentration with inhibitory effects on the nuclease activities", "value": "≥ 0.25", "unit": "mM"}, {"measurement": "Activity % ds-DNase", "setting": "[7]", "value": 70, "unit": "%"}, {"measurement": "Activity % ss-DNase", "setting": "[7]", "value": 75, "unit": "%"}, {"measurement": "Activity % ds-DNase", "setting": "[1]", "value": 0, "unit": "%"}, {"measurement": "Activity % ss-DNase", "setting": "[1]", "value": 0, "unit": "%"}, {"measurement": "Activity % ss-DNase", "setting": "[8]", "value": 0, "unit": "%"}, {"measurement": "Activity % ds-DNase", "setting": "[4]", "value": 0, "unit": "%"}, {"measurement": "Activity % ss-DNase", "setting": "[4]", "value": 0, "unit": "%"}]}, {"smiles": "[Mn+2]", "note": "[Mn^2+]", "values": [{"measurement": "ability to replace Mg^2+ as cofactor", "value": "partially substitute for Mg^2+"}, {"measurement": "concentration with inhibitory effects on the nuclease activities", "value": "≥ 2.0", "unit": "mM"}, {"measurement": "Ratio of Activities for ss/ds-DNase", "setting": "metal ion 0.5 mM", "value": 1.7}, {"measurement": "Activity % ds-DNase", "setting": "[1]", "value": 195, "unit": "%"}, {"measurement": "Activity % ss-DNase", "setting": "[1]", "value": 258, "unit": "%"}, {"measurement": "Ratio of Activities for ss/ds-DNase", "setting": "metal ion 1.0 mM", "value": 1.4}, {"measurement": "Activity % ds-DNase", "setting": "[8]", "value": 212, "unit": "%"}, {"measurement": "Activity % ss-DNase", "setting": "[8]", "value": 215, "unit": "%"}, {"measurement": "Activity % ss-DNase", "setting": "metal ion 2.0 mM, activity with 10 mM Mg^2+ = 100%", "value": 0, "unit": "%"}, {"measurement": "Activity % ss-DNase", "setting": "[2]", "value": 0, "unit": "%"}, {"measurement": "Activity % ds-DNase", "setting": "[4]", "value": 0, "unit": "%"}, {"measurement": "Activity % ss-DNase", "setting": "[4]", "value": 0, "unit": "%"}]}]}
